Test results taken from patent publication US20240342186A1, “PYRIDINE DERIVATIVES WITH N-LINKED CYCLIC SUBSTITUENTS AS cGAS INHIBITORS” (Boehringer Ingelheim International GmbH, priority 2021, published 2024).
Read-outs that look alike come from different tables or passages of the source.

Experiments:
[1] = molecular target: cGAS (Homo sapiens (Human), UniProt Q8N884); assay: Human cGAS enzyme assay (hcGAS IC50, in vitro), cGAMP formation by RapidFire MS; format: biochemical;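 also: enzyme activated by 45 bp dsDNA with GTP and ATP (30 µM each), 60 min compound pre-incubation then 90 min reaction, cGAMP relative to cyclic-di-GMP internal standard, 8-point dilutions up to 10 µM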
[2] = system: cellular cGAS activity in baculovirus-stimulated THP1-Dual cells (IRF dependent Lucia luciferase reporter); assay: Human cGAS cell assay: inhibition of IFN induction in virus-stimulated THP1 cells (THP1(vir) IC50); format: cell-based; details: Homo sapiens, THP1-Dual
Summary of the method: (§1)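 THP1-Dual cells with IRF-dependent Lucia luciferase reporter, stimulated by empty baculovirus (dsDNA delivery activating cGAS) or, for the counter assay, directly by cGAMP. 5000 cells/well, 8 concentrations from 10 μM top, 1% DMSO, 18 h at 37 °C; luminescence read, IC50 by 4-parameter logistic fit versus unstimulated low control.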

[3] = system: cGAMP-stimulated THP1-Dual cells (pathway directly downstream of cGAS); assay: cGAMP stimulated counter cell assay: inhibition of IFN induction in cGAMP-stimulated THP1 cells (THP1(cGAMP) IC50); format: cell-based, human; details: for IC50: read-out: THP1(cGAMP) IC50 (converted); for Ratio THP1(cGAMP) IC50 / THP1(vir) IC50: selectivity for cGAS inhibition
Summary of the method: as §1

[4] = system: cellular cGAS activity in dsDNA-stimulated human whole blood; assay: Human whole blood assay (hWB IC50): IFNα2α production after dsDNA transfection; format: cell-based
Summary of the method: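 Citrated blood from healthy donors preincubated 60 min at room temperature with compound (top 10 µM, ~1:5 steps, 0.1% DMSO), then transfected with dsDNA/Fugene and incubated 22 h at 37 °C. Plasma IFNα2α measured by MSD immunoassay; IC50 from 4-parameter fit of % control (stimulated vs unstimulated).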

[5] = biochemical (in vitro) cGAS inhibition
[6] = inhibition of IFN induction in virus-stimulated THP1 cells, read-out: THP1(vir) IC50
[7] = Homo sapiens, THP1-Dual, inhibition of IFN induction in cGAMP-stimulated THP1 cells
[8] = inhibition of IFN induction in dsDNA-stimulated human whole blood
[9] = read-out: THP1(vir) IC50, virus-stimulated THP1 cells, IFN induction
[10] = biochemical (in vitro), human cGAS, 45 bp dsDNA, GTP/ATP
[11] = Homo sapiens, THP1-Dual, cGAMP-stimulated THP1 cells, counter assay
[12] = dsDNA-stimulated human whole blood, IFN induction

Sequence of cGAS (Q8N884 whole entry): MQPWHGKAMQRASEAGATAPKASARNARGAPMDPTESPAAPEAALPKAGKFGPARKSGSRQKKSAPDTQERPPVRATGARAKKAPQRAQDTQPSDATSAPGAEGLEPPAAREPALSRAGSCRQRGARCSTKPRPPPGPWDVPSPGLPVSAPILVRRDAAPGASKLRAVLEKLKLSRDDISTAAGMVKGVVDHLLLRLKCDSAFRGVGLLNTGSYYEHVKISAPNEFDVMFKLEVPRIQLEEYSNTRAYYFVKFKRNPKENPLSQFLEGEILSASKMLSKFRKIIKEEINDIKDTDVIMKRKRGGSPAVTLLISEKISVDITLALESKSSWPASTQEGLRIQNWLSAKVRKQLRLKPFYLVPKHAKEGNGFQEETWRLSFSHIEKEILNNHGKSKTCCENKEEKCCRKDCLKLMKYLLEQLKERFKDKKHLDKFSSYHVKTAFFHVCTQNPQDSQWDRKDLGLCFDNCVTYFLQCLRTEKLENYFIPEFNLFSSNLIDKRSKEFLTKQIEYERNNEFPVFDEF

IC50 [1, 5] [nM] | IC50 [2, 6] [nM] | IC50 [4, 8] [nM] | IC50 ([2]; virus-stimulated THP1 cells, IFN induction, read-out: THP1(vir) IC50) [nM] | SMILES | IC50 [3, 7] [nM] | Ratio THP1(cGAMP) IC50 / THP1(vir) IC50 [3] | IC50 ([2]; read-out: THP1(vir) IC50, inhibition of IFN induction in virus-stimulated THP1 cells) [nM] | IC50 [2, 9] [nM] | IC50 ([3]; cGAMP-stimulated THP1 cells, counter assay) [nM] | IC50 [1, 10] [nM] | IC50 [3, 11] [nM] | IC50 [4, 12] [nM]
5 | 11 | 21 |  | C[C@@H]1N(c2cc(-c3cn(C)nn3)cnc2O[C@H]2C[C@@H](C(=O)O)N(c3nc(C(F)(F)F)nc4c3oc3ccccc34)C2)CCOC12COC2 [Example 8.01, (2S,4S)-4-{[5-(1-methyl-1H-1,2,3-triazol-4-yl)-3-[(95)-9-methyl-2,5-dioxa-8-azaspiro[3.5]nonan-8-yl]pyridin-2-yl]oxy}-1-[4-(trifluoromethyl)-8-oxa-3,5-diazatricyclo[7.4.0.0^2,7]trideca-1(9),2(7),3,5,10,12-hexaen-6-yl]pyrrolidine-2-carboxylic acid] | 14900 | 1366 |  |  |  |  |  | 
6 | 16 | 38 |  | CSc1cnc(O[C@H]2C[C@@H](C(=O)O)N(c3nc(C(F)F)nc4c3oc3ccccc34)C2)c(N2CCOC3(COC3)[C@@H]2C)c1 [Example 9.01, (2S,4S)-1-[4-(difluoromethyl)-8-oxa-3,5-diazatricyclo[7.4.0.0^2,7]trideca-1(9),2(7),3,5,10,12-hexaen-6-yl]-4-({3-[(9S)-9-methyl-2,5-dioxa-8-azaspiro[3.5]nonan-8-yl]-5-(methylsulfanyl)pyridin-2-yl}oxy)pyrrolidine-2-carboxylic acid] | 19800 | 1254 |  |  |  |  |  | 
5 | 10 | 47 |  | C[C@@H]1N(c2cc(-n3cccn3)cnc2O[C@H]2C[C@@H](C(=O)O)N(c3nc(C(F)(F)F)nc4c3oc3ccccc34)C2)CCOC12COC2 [Example 10.01, (2S,4S)-4-({3-[(95)-9-methyl-2,5-dioxa-8-azaspiro[3.5]nonan-8-yl]-5-(1H-pyrazol-1-yl)pyridin-2-yl}oxy)-1-[4-(trifluoromethyl)-8-oxa-3,5-diazatricyclo[7.4.0.0^2,7]trideca-1(9),2(7),3,5,10,12-hexaen-6-yl]pyrrolidine-2-carboxylic acid] | > 10000 | >1000 |  |  |  |  |  | 
 |  |  | 67 | COC(=O)[C@@H]1C[C@H](Oc2ncc(-c3cccnc3OC)cc2N2CCOC3(COC3)[C@@H]2C)CN1c1nc(C(F)(F)F)nc2c1oc1ccccc12 [Example P04] |  |  |  |  |  | > 9950 | > 16600 | 2750

The remaining lines, values behind:

SMILES | IC50 [1, 5] [nM] | IC50 [2, 6] [nM] | IC50 [4, 8] [nM] | IC50 ([2]; virus-stimulated THP1 cells, IFN induction, read-out: THP1(vir) IC50) [nM] | IC50 [3, 7] [nM] | Ratio THP1(cGAMP) IC50 / THP1(vir) IC50 [3] | IC50 ([2]; read-out: THP1(vir) IC50, inhibition of IFN induction in virus-stimulated THP1 cells) [nM] | IC50 [2, 9] [nM] | IC50 ([3]; cGAMP-stimulated THP1 cells, counter assay) [nM] | IC50 [1, 10] [nM] | IC50 [3, 11] [nM] | IC50 [4, 12] [nM]
C[C@@H]1N(c2cc(-c3ccc(OC4CCOCC4)nc3)cnc2O[C@H]2C[C@@H](C(=O)O)N(c3nc(C(F)(F)F)nc4c3oc3ccccc34)C2)CCOC12COC2 [Example 3.29] | 66 | 591 | 1570 |  | 6540 | 11 |  |  |  |  |  | 
C[C@@H]1N(c2cc(-c3cnn(C(F)(F)F)c3)cnc2O[C@H]2C[C@@H](C(=O)O)N(c3nc(C(F)(F)F)nc4c3oc3ccccc34)C2)CCOC12COC2 [Example 3.30] | 26 | 15 | 84 |  | 12600 | 829 |  |  |  |  |  | 
C[C@@H]1N(c2cc(-c3cnn(C(F)F)c3)cnc2O[C@H]2C[C@@H](C(=O)O)N(c3nc(C(F)(F)F)nc4c3oc3ccccc34)C2)CCOC12COC2 [Example 3.31] | 11 | 3 | 28 |  | 10900 | 4120 |  |  |  |  |  | 
COc1cc(-c2cnc(O[C@H]3C[C@@H](C(=O)O)N(c4nc(C(F)F)nc5c4oc4ccccc45)C3)c(N3CCOC4(COC4)[C@@H]3C)c2)c(F)cn1 [Example 3.32] | 9 | 2 | 17 |  | 12900 | 5194 |  |  |  |  |  | 
COc1c(-c2cnc(O[C@H]3C[C@@H](C(=O)O)N(c4nc(C(F)F)nc5c4oc4ccccc45)C3)c(N3CCOC4(COC4)[C@@H]3C)c2)ccnc1N(C)C [Example 4.02] | 12 | 17 | 42 |  | 12600 | 735 |  |  |  |  |  | 
CNc1nccc(-c2cnc(O[C@H]3C[C@@H](C(=O)O)N(c4nc(C(F)F)nc5c4oc4ccccc45)C3)c(N3CCOC4(COC4)[C@@H]3C)c2)c1OC [Example 4.03] | 8 | 199 | 78 |  | 7870 | 40 |  |  |  |  |  | 
C[C@@H]1N(c2cccnc2O[C@H]2C[C@@H](C(=O)O)N(c3nc(C(F)F)nc4c3oc3ccccc34)C2)CCOC12COC2 [Example 4.04, (2S,4S)-4-({3-[(9S)-9-methyl-2,5-dioxa-8-azaspiro[3.5]nonan-8-y]-pyridin-2-yl}-oxy)1-[4-(difluoro-methyl)-8-oxa-3,5-diazatricyclo[7.4.0.0^2.7]trideca-1(13),2,4,6,9,11-hexaen-6-yl]pyrrolidine-2-carboxylic acid] | 2 |  | 77 |  | > 16600 | >43 | 386 | 386 | > 16600 |  |  | 
C[C@@H]1N(c2cc(-c3ccnc([S+](C)[O-])c3)cnc2O[C@H]2C[C@@H](C(=O)O)N(c3nc(C(F)F)nc4c3oc3ccccc34)C2)CCOC12COC2 (stereo partly drawn) [Example 5.01, (2S,4S)-1-[4-(Difluoromethyl)-8-oxa-3,5-diazatricyclo[7.4.0.0^2,7]trideca-1(9),2(7),3,5,10,12-hexaen-6-yl]-4-({2′-methanesulfinyl-5-[(95)-9-methyl-2,5-dioxa-8-azaspiro[3.5]nonan-8-yl]-[3,4′-bipyridin]-6-yl}oxy)pyrrolidine-2-carboxylic acid] | 5 | 579 | 239 |  | 22100 | 38 |  |  |  |  |  | 
CC#Cc1cnc(O[C@H]2C[C@@H](C(=O)O)N(c3nc(C(F)(F)F)nc4c3oc3ccccc34)C2)c(N2CCOC3(COC3)[C@@H]2C)c1 [Example 6.01] | 10 | < 5 | 25 |  | 20500 | 3801 |  |  |  |  |  | 
CC#Cc1cnc(O[C@H]2C[C@@H](C(=O)O)N(c3nc(C(F)F)nc4c3oc3ccccc34)C2)c(N2CCOC3(COC3)[C@@H]2C)c1 [Example 6.02] | 6 | < 5 | 8 |  | > 16000 | >3000 |  |  |  |  |  | 
CC#Cc1cnc(O[C@H]2C[C@@H](C(=O)O)N(c3nc(C(F)(F)F)nc4c3oc3ccccc34)C2)c(N2CCOC3(CC3)[C@@H]2C)c1 [Example 6.03] | 7 | 5 | 95 |  | 10900 | 2273 |  |  |  |  |  | 
COc1csc(-c2cnc(O[C@H]3C[C@@H](C(=O)O)N(c4nc(C(F)(F)F)nc5c4oc4ccccc45)C3)c(N3CCOC4(COC4)[C@@H]3C)c2)n1 [Example 7.02] | 14 | 1 | 13 |  | 8320 | 7533 |  |  |  |  |  | 
CNc1cccc(-c2cnc(O[C@H]3C[C@@H](C(=O)O)N(c4nc(C(F)(F)F)nc5c4oc4ccccc45)C3)c(N3CCOC4(COC4)[C@@H]3C)c2)n1 [Example 7.03] | 21 | 2 | 27 |  | > 10000 | 4151 |  |  |  |  |  | 
Cc1cnc(-c2cnc(O[C@H]3C[C@@H](C(=O)O)N(c4nc(C(F)(F)F)nc5c4oc4ccccc45)C3)c(N3CCOC4(COC4)[C@@H]3C)c2)cn1 [Example 7.04] | 12 | 2 | 22 |  | > 10000 | 4084 |  |  |  |  |  | 
C[C@@H]1N(c2cc(-c3cnn(C)n3)cnc2O[C@H]2C[C@@H](C(=O)O)N(c3nc(C(F)(F)F)nc4c3oc3ccccc34)C2)CCOC12COC2 [Example 7.05] | 9 | 10 | 35 |  | 13200 | 1292 |  |  |  |  |  | 
COC(=O)[C@@H]1C[C@H](Oc2ncccc2N2CCOC3(COC3)[C@@H]2C)CN1c1nc(C(F)F)nc2c1oc1ccccc12 [Example P01, Methyl (2S,4S)-4-({3-[(9S)-9-methyl-2,5-dioxa-8-azaspiro[3.5]nonan-8-yl]pyridin-2-yl}oxy)-1-[4-(difluoromethyl)-8-oxa-3,5-diazatricyclo[7.4.0.0^2,7]trideca-1(9),2(7),3,5,10,12-hexaen-6-yl]pyrrolidine-2-carboxylate] |  |  |  |  |  |  |  | 358 |  | > 9960 | 26100 | 1310
COC(=O)[C@@H]1C[C@H](Oc2ncc(Br)cc2N2CCOC3(COC3)[C@@H]2C)CN1c1nc(C(F)(F)F)nc2c1oc1ccccc12 [Example P02] |  |  |  |  |  |  |  | 444 |  | > 9950 | 17100 | 5330
C#Cc1cnc(O[C@H]2C[C@@H](C(=O)OC)N(c3nc(C(F)(F)F)nc4c3oc3ccccc34)C2)c(N2CCOC3(COC3)[C@@H]2C)c1 [Example P03] |  |  |  |  |  |  |  | 188 |  | 9620 | 22800 | 1090
